Experiments:
Format in all cases: in vivo
homme = experiment: Clinical trials; conditions: for résultats en tant que médicaments de l'éveil: notamment vieillard, gélules ou comprimés de 100 à 200 mg, 1 à 3 par jour
Text: Les études cliniques ont porté sur les troubles de la vigilance, de l'éveil et des états confusionnels, d'une part, et sur les troubles de l'affectivité, du contact et des dépressions, d'autre part.

souris mâle [1] = experiment: Pentobarbital-induced sleep duration
Text: Les composés selon l'invention se distinguent du benzhydrylsulfinylacétamide (CRL 40476) précité par une différence d'action vis-à-vis du sommeil barbiturique. […]. Cette différence d'action qui est intéressante sur le plan thérapeutique est illustrée par le tableau IV

rats = experiment: Interaction with amphetamine (stereotypies); conditions: rat; 8 mg/kg à 128 mg/kg i.p.
Protocol: (§1) On a résumé ci-après les résultats des essais pharmacologiques qui ont été entrepris avec les produits selon la présente addition. Dans ces essais, les produits de formule I à étudier ont été administrés par voie intrapéritonéale, en suspension dans une solution aqueuse de gomme arabique, sous un volume de 20 ml/kg chez la souris mâle et sous un volume de 5 ml/kg chez le rat mâle.
L'amphétamine (2 mg/kg)est injectée par voie intrapéritonéale à des lots de 6 rats, 30 min après l'administration de CRL 40933.

souris mâle [2] = experiment: Toxicity, DL-0; conditions: i.p.
Protocol: as §1
La toxicité a été étudiée chez la souris mâle. Les résultats relatifs à la DL-0 (dose minimale non mortelle) sont donnés dans le tableau II ci-après.

souris [3] = experiment: Electroshock
Protocol: as §1
(§2) Les essais sont effectués sur des lots de 10 souris (par dose) 0,5 h après l'administration du CRL 40933.

rat = experiment: Interaction with apomorphine, rat; conditions: apomorphine 0,5 mg/kg s.c., dose not stated
Protocol: as §1
Le CRL 40933 est administré à des lots de 6 rats 0,5 h avant l'injection sous-cutanée de 0,5 mg/kg d'apomorphine.

souris [4] = experiment: Asphyxic anoxia (gallamine triethiodide); conditions: 64 mg/kg et 256 mg/kg i.p.
Protocol: as §1
Des lots de 10 souris par dose reçoivent le CRL 40933 30 min avant l'administration intrapéritonéale de 32 mg/kg de triiodoéthylate de gallamine.

souris [5] = experiment: Interaction with barbital (sleep)
Protocol: as §1
Une demi-heure après l'administration de CRL 40933, des lots de 10 souris reçoivent une injection intrapéritonéale de 220 mg/kg de barbital.

souris [6] = experiment: Spontaneous motility (actimeter)
Protocol: as §1
Une demi-heure, après avoir reçu le CRL 40933, les souris (6 par dose, 12 témoins) sont placées en actimètre où leur motilité est enregistrée pendant 30 min.

souris [7] = experiment: Interaction with oxotremorine
Protocol: as §1
Le CRL 40933 est administré à des lots de 6 souris 0,5 h avant l'injection intrapéritonéale de 0,5 mg/kg d'oxotrémorine.

souris [8] = experiment: Behavioural despair (forced immersion); conditions: souris
Protocol: as §1
Une demi-heure après avoir reçu le CRL 40933, des lots de 10 souris par dose sont placés dans un espace restreint rempli d'eau sur une hauteur de 6 cm; on note la durée d'immobilité entre la 2e et la 6e minute suivant l'immersion.

souris [9] = experiment: Traction test; conditions: 0,5 h after administration, dose not stated
Protocol: as §1, §2

souris [10] = experiment: Motility reduced by habituation to the enclosure
Protocol: as §1
Après 18 h de séjour dans les actimètres, les souris (6 par dose, 12 témoins) reçoivent le CRL 40933. Elles sont aussitôt replacées dans leurs enceintes respectives et, 30 min plus tard, on enregistre leur motilité pendant 30 min.

souris [11] = experiment: Interaction with apomorphine, mouse
Protocol: as §1
Des lots de 6 souris par dose reçoivent le CRL 40933 0,5 h avant l'injection sous-cutanée d'apomorphine administrée à la dose de 1 ou 16 mg/kg.

souris [12] = experiment: Motility reduced by hypoxic aggression (acute hypobaric anoxia)
Protocol: as §1
Une demi-heure après avoir reçu le CRL 40933, les souris (10 par dose, 20 témoins) sont soumises à une anoxie hypobare aiguë [dépression de 600 mm Hg (soit environ 8 x 10^4 pascals) en 90 s, puis détente de 45 s], puis elles sont placées en actimètre où leur motilité est enregistrée pendant 10 min.

souris [13] = experiment: Interaction with reserpine
Protocol: as §1
Quatre heures après l'injection intrapéritonéale de 2,5 mg/kg de réserpine, des lots de 6 souris reçoivent le CRL 40933.

souris [14] = experiment: Four plates test
Protocol: as §1, §2

souris mâles = experiment: Global behaviour and reactivities, mouse; conditions: souris
Protocol: as §1
(§3) Pour apprécier le comportement global et les réactivités, des lots de six animaux (souris mâles ou rats mâles) ont été observés avant administration de chaque produit, puis 15 min, 30 min, 1 h, 2 h, 3 h et 24 h après administration de chaque produit. Les résultats sont consignés dans le tableau III ci-après, […]

SNC = experiment: Essential activity on the CNS (Tableau I and conclusions of the neuropsychopharmacological study); conditions: in vivo
Text: Dans le tableau I ci-après, on a consigné un certain nombre de composés selon la formule I de façon nullement limitative, en mentionnant l'activité essentielle sur le SNC.
Les composés de formule I agissent tous sur le SNC. Les produits des exemples 1-3 et 7-8 sont des agents stimulants, en revanche les produits des exemples 4-6 sont des agents sédatifs.

souris [15] = experiment: Intergroup aggressiveness; conditions: dose not stated
Protocol: as §1
Après avoir séjourné pendant 3 semaines dans chacune des moitiés d'une cage séparées par une cloison opaque, des groupes de 3 souris reçoivent le CRL 40933. 30 min plus tard, les deux groupes d'une même cage sont réunis par retrait de la cloison et on note le nombre de combats qui surviennent en 10 min.

rats mâles = experiment: Global behaviour and reactivities, rat
Protocol: as §1, §3

[16] = dose 256 mg/kg i.p., 0,5 h before pentobarbital
[17] = 16 mg/kg, 64 mg/kg et 256 mg/kg i.p.

Compound: CC(C)NC(=O)C[S+]([O-])C(c1ccccc1)c1ccccc1 (stereo not shown) [Exemple 2]
- action contre l'énurésie (homme): agissent efficacement
- résultats en tant que médicaments de l'éveil (homme): excellents résultats
- Action sur la durée du sommeil induit par le pentobarbital (50 mg/kg i.p.) effet (souris mâle [1]; [16]): (a)
- stéréotypies amphétaminiques (rats): semble potentialiser faiblement
- DL-O (souris mâle [2]): supérieure à 512 mg/kg
- effets convulsivants de l'électrochoc (souris [3]; 64 mg/kg à 256 mg/kg i.p.): s'oppose
- stéréotypies induites par l'apomorphine (rat): ne sont pas modifiées
- apparition des convulsions anoxiques provoquées par le triiodoéthylate de gallamine (souris [4]): retarde modérément
- durée du sommeil barbiturique (souris [5]; 256 mg/kg i.p.): diminue nettement
- motilité spontanée (souris [6]; 256 mg/kg i.p.): hypermotilité nette
- signes de stimulation cholinergique périphérique, notamment la défécation (souris [7]; 64 mg/kg à 256 mg/kg i.p.): semble entraîner une diminution
- intensité des tremblements provoqués par l'oxotrémorine (souris [7]; 256 mg/kg i.p.): semble diminuer modérément
- action hypothermisante de l'oxotrémorine (souris [7]; dose not stated): ne modifie pratiquement pas
- durée d'immobilité (souris [8]; dès la dose de 16 mg/kg i.p.): diminue nettement
- déficit moteur (traction) (souris [9]): ne provoque pas de déficit moteur majeur
- activité chez la souris habituée à son enceinte (souris [10]; 4 mg/kg, 64 mg/kg et 256 mg/kg i.p.): semble provoquer une reprise de l'activité
- reprise de l'activité chez la souris habituée à son enceinte (souris [10]; intermediate dose 16 mg/kg i.p.): n'est pas observé
- comportement de verticalisation et stéréotypies (apomorphine) (souris [11]; dose not stated): laisse inchangés
- hypothermie produite par l'apomorphine (souris [11]; dose not stated): laisse inchangés
- récupération motrice (motilité réduite par agression hypoxique) (souris [12]; 64 mg/kg et surtout 256 mg/kg i.p.): amélioration nette
- ptôsis réserpinique (souris [13]; 256 mg/kg i.p.): diminue très modérément
- nombre de passages punis (souris [14]; 0,5 h after administration, dose not stated): n'entraîne pas d'augmentation
- hypothermie modérée (souris mâles; 256 mg/kg i.p., pendant 0,5 h): -1 °C
- Observations (comportement global et réactivités) (souris mâles; 512 mg/kg i.p.): respiration déprimée, dyspnée, sédation, diminution de la réactivité au toucher, puis excitation au bout de 3 h
- mortalité (souris mâles; 512 mg/kg i.p.): pas de mortalité
- Observations (comportement global et réactivités) (souris mâles; 128 mg/kg i.p.): sédation, puis excitation 3 h après admi-nistration
- Observations (comportement global et réactivités) (souris mâles; 256 mg/kg i.p.): sédation pendant 0,5 h avec diminution de la fréquence respiratoire - hyporéactivité au toucher pendant 2 h - hypothermie modérée (-1°C) pendant 0,5 h - excitation 3 h après administration
- Activité sur le SNC (SNC): stimulant
- conclusion of the neuropsychopharmacological study: main type of CNS effect (SNC): agent psychotrope
- agressivité intergroupes (nombre de combats) (souris [15]): diminue très modérément
- Observations (comportement global et réactivités) (rats mâles; 128 mg/kg i.p.): mydriase pendant 3 h

Compound: CC(C)(C)NC(=O)C[S+]([O-])C(c1ccccc1)c1ccccc1 (stereo not shown) [Exemple 3]
- Activité sur le SNC (SNC): stimulant

Compound: CCNC(=O)C[S+]([O-])C(c1ccccc1)c1ccccc1 (stereo not shown) [Exemple 4]
- Action sur la durée du sommeil induit par le pentobarbital (50 mg/kg i.p.) effet (souris mâle [1]; dose 64 mg/kg i.p., 0,5 h before pentobarbital): (a)
- Action sur la durée du sommeil induit par le pentobarbital (50 mg/kg i.p.) effet (souris mâle [1]; dose 128 mg/kg i.p., 0,5 h before pentobarbital): (a)
- Action sur la durée du sommeil induit par le pentobarbital (50 mg/kg i.p.) effet (souris mâle [1]; [16]): (a)
- DL-O (souris mâle [2]): supérieure à 512 mg/kg
- effet convulsivant de l'électrochoc (souris [3]; doses faibles et moyennes): antagonisme
- sommeil barbiturique (souris [5]; dose not stated): effet antagoniste
- activité motrice (souris [6]; doses faibles et moyennes): absence de toute diminution d'activité motrice
- motilité spontanée (souris [6]; doses élevées): hypermotilité discrète
- hypomotilité de "désespoir" (souris [8]; dose not stated): diminution
- activité chez la souris habituée à son enceinte (souris [10]; doses élevées): reprise modérée de l'activité
- récupération motrice après hypoxie (souris [12]; doses élevées): amélioration sensible
- ensemble d'effets de type sédatif (souris mâles; doses faibles et moyennes): sédation, hypo- réactivité, hypoagressivité, hypothermie
- Activité sur le SNC (SNC): sédatif

Compound: O=C(C[S+]([O-])C(c1ccccc1)c1ccccc1)N1CCOCC1 (stereo not shown) [Exemple 6]
- Activité sur le SNC (SNC): sédatif

Compound: NC(=O)C[S+]([O-])C(c1ccccc1)c1ccc(F)cc1 (stereo not shown) [Exemple 9]
- action contre l'énurésie (homme): agissent efficacement
- résultats en tant que médicaments de l'éveil (homme): excellents résultats
- Action sur la durée du sommeil induit par le pentobarbital (50 mg/kg i.p.) effet (souris mâle [1]; dose 16 mg/kg i.p., 0,5 h before pentobarbital): (a)
- DL-O (souris mâle [2]): supérieure à 512 mg/kg
- effets convulsivants de l'électrochoc (souris [3]; 256 mg/kg i.p.): s'oppose partiellement
- durée du sommeil barbiturique (souris [5]; [17]): diminue nettement
- durée de l'hypermotilité (souris [6]): ≥ 4 h
- time of maximal hypermotility after administration (souris [6]): 0,5 h
- motilité spontanée (souris [6]; dès la dose de 16 mg/kg i.p.): pypermotilité
- signes de stimulation cholinergique périphérique dus à l'oxotrémorine (souris [7]; dose not stated): ne modifie pas
- tremblements induits par l'oxotrémorine (souris [7]; dose not stated): n'est pratiquement pas modifiée
- baisse de température provoquée par l'oxotrémorine (souris [7]; highest dose used): s'oppose
- durée d'immobilité (souris [8]; [17]): diminue fortement
- déficit moteur (traction) (souris [9]): ne provoque pas de déficit moteur
- activité motrice chez la souris habituée à son enceinte (souris [10]; 64 mg/kg et 256 mg/kg i.p.): reprise de l'activité motrice
- action hypothermisante de l'apomorphine (souris [11]; 256 mg/kg i.p.): s'oppose
- comportement de verticalisation et stéréotypies (apomorphine) (souris [11]; 256 mg/kg i.p.): sans modifier
- hypothermie réserpinique (souris [13]; 256 mg/kg i.p., 1,5 h): s'oppose tardivement
- ptosis réserpinique (souris [13]; 256 mg/kg i.p., 24 h): s'oppose tardivement
- passages punis (souris [14]; 64 et 256 mg/kg i.p.): nette augmentation
- Observations (comportement global et réactivités) (souris mâles; 16 mg/kg i.p.): excitation pendant 1 h pour 33 % des animaux
- excitation (souris mâles; 16 mg/kg i.p., pendant 1 h): 33 % des animaux
- Observations (comportement global et réactivités) (souris mâles; 64 mg/kg i.p.): excitation apparaissant en 30 minutes, maximale après 2 h et durant 24 h - apparition tardive (2-3 h)- 4 mouvements stéréotypés de faible intensité - réactivité au toucher pendant 2-3 h
- Observations (comportement global et réactivités) (souris mâles; 256 mg/kg i.p.): excitation apparaissant en 30 minutes et maximale 2 à 3 h après administration - présence de stétréotypies nettes mais tardives - réactivité au toucher pendant 3 h
- Activité sur le SNC (SNC): stimulant
- conclusion of the neuropsychopharmacological study: main type of CNS effect (SNC): effet stimulant du SNC qui est essentiel
- conclusion: effets de type antidépresseur (SNC): à forte dose seulement un effet antidépresseur du SNC
- Observations (comportement global et réactivités) (rats mâles; 8 mg/kg i.p.): hyporéactivité fugace (0,5 h) et diminution du tonus musculaire
- Observations (comportement global et réactivités) (rats mâles; 32 mg/kg i.p.): diminution fugace (0,5 h) de la réactivité au toucher et du tonus musculaire
- Observations (comportement global et réactivités) (rats mâles; 128 mg/kg i.p.): excitation pendant 2 h avec hyper-réactivité au toucher pendant 0,5 h
